Results published in US20250280696A1, “FORMULATIONS AND USES THEREOF IN OPTOELECTRONIC FIELD” (Zhejiang Brilliant Optoelectronic Technology Co.,Ltd., priority 2022, published 2025).

What was measured:
Type in all cases: physicochemical
[1] = Absorption and emission spectrum in spin-coated film; settings: for Red shift of the spectrum in the film relative to the solution: film vs toluene solution; for Absorption peak of the film / Emission peak of the film: spin-coated film on glass
Experimental: The Absorption and emission spectrums of the compounds in the film were determined as follows: • 1. The compound with a certain concentration in the toluene was prepared. • 2. The prepared toluene solution was dropped onto a clean glass substrate. • 3. Spin-coating, and then heating at the 80° C. for 1 min. • 4. The absorption spectrum of the film was measured by using an ultraviolet-visible spectrophotometer (Puxi T9s) to obtain the absorption peak wavelength. • 5. The emission spectrum of the film was measured by using a fluorescent spectroscope (Hitachi, F-4700 FL Spectrophotometer) to obtain the emission peak wavelength.
(§1) The extinction coefficients of the compounds and their absorption and emission peaks in the solution and film are shown in Table 3.

[2] = UV stability of compounds in toluene (absorbance decay, t80); settings: for Times t80: UV LEDs 365 nm & 255 nm, 12 cm, time until absorbance decayed to 80% of initial value
Experimental: The UV stability of the compounds were tested as follows:
The compound was dissolved in the toluene with a concentration of 1×10^5 mol/L. 3 mL solution was added to the cuvette with a lid and the lid was screwed on tightly, then the cuvette was placed in the ultraviolet-visible spectrophotometer to test the absorption spectrum, the absorbance of the maximum absorption peak was recorded as the initial value. The cuvette was placed at a distance of 12 cm from the UV LEDs (365 nm & 255 nm), irradiated for a period and tested its absorption spectrum, then continued to be irradiated after the test, and repeated until the absorbance decayed to 80% of its initial value, the time was recorded as t80.

[3] = Solubility of compounds in toluene; settings: per 100 g toluene
Experimental: The solubility of the compounds in the toluene were determined as follows: • 1. 1000 mg toluene was placed in the transparent glass sample bottle. • 2. A certain mass of the compound was added into the toluene, and oscillated until completely dissolved. • 3. After the compound was completely dissolved, a certain mass of the compound was further added into the toluene, and oscillated. • 4. The above steps were repeated until the compound wasn't dissolved any more. • 5. The total mass of the compound added was recorded and the solubility was obtained by calculation.

[4] = Absorption spectrum, emission spectrum and extinction coefficient in toluene solution; settings: for Molar extinction coefficient of the toluene solution: at maximum absorption peak
Experimental: The extinction coefficients of the compounds and their absorption and emission spectrums in the solution were determined as follows: • 1. The compound with a certain amount of substance concentration in the toluene was prepared in a volumetric flask. • 2. The absorption spectrum of the solution was measured by using an ultraviolet-visible spectrophotometer (Puxi T9s) to obtain the absorption peak wavelength. • 3. The absorbance of the maximum absorption peak divided by the amount of substance concentration is the molar extinction coefficient of the compound. • 4. The emission spectrum of the solution was measured by using a fluorescent spectroscope (Hitachi, F-4700 FL Spectrophotometer) to obtain the emission peak wavelength.
as §1

Structure (SMILES) | Red shift of the spectrum in the film relative to the solution [1] | Times t80 [2] [min] | Solubilities(/100 g toluene) [3] [g] | Molar extinction coefficient of the toluene solution [4] [L/mol] | Absorption peak of the film [1] [nm] | Emission peak of the film [1] [nm] | Absorption peak of the toluene solution [4] [nm] | Emission peak of the toluene solution [4] [nm] | UV stability compared with the unfluorinated compound 20 ([2]; UV irradiation)
CC1CCC(C(C)C)C(Oc2ccc(-c3cc(C(C)C)ccc3N(c3cc(F)c(F)c(F)c3)c3cc(N(c4cc(F)c(F)c(F)c4)c4ccc(C(C)C)cc4-c4ccc(OC5CC(C)CCC5C(C)C)cc4)c4ccc5c(N(c6cc(F)c(F)c(F)c6)c6ccc(C(C)C)cc6-c6ccc(OC7CC(C)CCC7C(C)C)cc6)cc(N(c6cc(F)c(F)c(F)c6)c6ccc(C(C)C)cc6-c6ccc(OC7CC(C)CCC7C(C)C)cc6)c6ccc3c4c65)cc2)C1 (stereo not drawn) [Compound 23] | very small red shift | 405 | >10 | 68000 |  |  |  |  | 
CCCCCCCCc1ccc(N(c2ccc(C(C)C)cc2-c2cc(F)c(F)c(F)c2)c2cc(N(c3ccc(CCCCCCCC)cc3)c3ccc(C(C)C)cc3-c3cc(F)c(F)c(F)c3)c3ccc4c(N(c5ccc(CCCCCCCC)cc5)c5ccc(C(C)C)cc5-c5cc(F)c(F)c(F)c5)cc(N(c5ccc(CCCCCCCC)cc5)c5ccc(C(C)C)cc5-c5cc(F)c(F)c(F)c5)c5ccc2c3c54)cc1 [Compound 26] | very small red shift | 486 | >10 | 55000 |  |  |  |  | 
c1ccc(N(c2ccccc2)c2cc(N(c3ccccc3)c3ccccc3)c3ccc4c(N(c5ccccc5)c5ccccc5)cc(N(c5ccccc5)c5ccccc5)c5ccc2c3c54)cc1 [Compound 20] | large red shift | 188 | >1.5 | 23000 | 482 | 561 | 465 | 488 | 
CC(C)(C)c1ccc2c(c1)c1cc(C(C)(C)C)cc3c1n2-c1cccc2c1B3c1cc3c4ccccc4c4ccccc4c3c3c4c5c6ccccc6c6ccccc6c5ccc4n-2c13 [Compound E2, reference compound] |  |  | >0.7 | 48000 |  |  |  |  | 
Cc1ccccc1N(c1ccc(C(C)(C)C)cc1C)c1cc(N(c2ccccc2C)c2ccc(C(C)(C)C)cc2C)c2ccc3c(N(c4ccccc4C)c4ccc(C(C)(C)C)cc4C)cc(N(c4ccccc4C)c4ccc(C(C)(C)C)cc4C)c4ccc1c2c43 [Compound 12] |  |  | >3 |  |  |  |  |  | 
Fc1cccc(F)c1N(c1ccccc1)c1cc(N(c2ccccc2)c2c(F)cccc2F)c2ccc3c(N(c4ccccc4)c4c(F)cccc4F)cc(N(c4ccccc4)c4c(F)cccc4F)c4ccc1c2c43 [Compound 17] | large red shift |  | >1 | 18000 | 445 | 496 | 439 | 462 | greatly improved
Cc1cc2ccccc2c(C)c1N(c1ccc(C(C)(C)C)cc1)c1cc(N(c2ccc(C(C)(C)C)cc2)c2c(C)cc3ccccc3c2C)c2ccc3c(N(c4ccc(C(C)(C)C)cc4)c4c(C)cc5ccccc5c4C)cc(N(c4ccc(C(C)(C)C)cc4)c4c(C)cc5ccccc5c4C)c4ccc1c2c43 [Compound 14] |  |  | >2 |  |  |  |  |  | 
Cc1cccc(C)c1N(c1ccc(C(F)(F)F)cc1)c1cc(N(c2ccc(C(F)(F)F)cc2)c2c(C)cccc2C)c2ccc3c(N(c4ccc(C(F)(F)F)cc4)c4c(C)cccc4C)cc(N(c4ccc(C(F)(F)F)cc4)c4c(C)cccc4C)c4ccc1c2c43 [Compound 15] |  |  | >4 |  |  |  |  |  | 
CC(C)c1cccc(C(C)C)c1N(c1ccc(C(C)(C)C)cc1)c1cc(N(c2ccc(C(C)(C)C)cc2)c2c(C(C)C)cccc2C(C)C)c2ccc3c(N(c4ccc(C(C)(C)C)cc4)c4c(C(C)C)cccc4C(C)C)cc(N(c4ccc(C(C)(C)C)cc4)c4c(C(C)C)cccc4C(C)C)c4ccc1c2c43 [Compound 8] |  |  | >20 |  |  |  |  |  | 
Cc1cccc(C)c1N(c1ccc(C(C)(C)C)cc1)c1cc(N(c2ccc(C(C)(C)C)cc2)c2c(C)cccc2C)c2ccc3c(N(c4ccc(C(C)(C)C)cc4)c4c(C)cccc4C)cc(N(c4ccc(C(C)(C)C)cc4)c4c(C)cccc4C)c4ccc1c2c43 [Compound 4] | very small red shift | 195 | 4.2 | 30000 |  |  |  |  | 
Cc1cc2ccccc2cc1N(c1ccc(C(C)(C)C)cc1)c1cc(N(c2ccc(C(C)(C)C)cc2)c2cc3ccccc3cc2C)c2ccc3c(N(c4ccc(C(C)(C)C)cc4)c4cc5ccccc5cc4C)cc(N(c4ccc(C(C)(C)C)cc4)c4cc5ccccc5cc4C)c4ccc1c2c43 [Compound 13] |  |  | >2.5 |  |  |  |  |  | 
CCCCCCCCc1ccc(-c2cc(C(C)C)ccc2N(c2cc(F)c(F)c(F)c2)c2cc(N(c3cc(F)c(F)c(F)c3)c3ccc(C(C)C)cc3-c3ccc(CCCCCCCC)cc3)c3ccc4c(N(c5cc(F)c(F)c(F)c5)c5ccc(C(C)C)cc5-c5ccc(CCCCCCCC)cc5)cc(N(c5cc(F)c(F)c(F)c5)c5ccc(C(C)C)cc5-c5ccc(CCCCCCCC)cc5)c5ccc2c3c54)cc1 [Compound 22] | very small red shift | 377 | >15 | 59000 |  | 490 |  |  | 
CC(C)(C)c1ccc2c(c1)B1c3c(c4c5c(c3-n3c6ccc(C(C)(C)C)cc6c6cc(C(C)(C)C)cc1c63)Oc1ccc(C(C)(C)C)cc1B5c1cc(C(C)(C)C)cc3c5cc(C(C)(C)C)ccc5n-4c13)O2 [Compound E4, reference compound] |  |  | >0.7 | 27000 |  |  | 589 | 613 | 
CC(C)(C)c1ccc(N(c2ccccc2)c2cc(N(c3ccccc3)c3ccc(C(C)(C)C)cc3)c3ccc4c(N(c5ccccc5)c5ccc(C(C)(C)C)cc5)cc(N(c5ccccc5)c5ccc(C(C)(C)C)cc5)c5ccc2c3c54)cc1 [Compound 21] | large red shift |  | >3 | 40000 | 472 | 546 | 469 | 495 | 
Cc1cccc(C)c1N(c1ncc2ccccc2n1)c1cc(C(C)C)c2ccc3c(N(c4ncc5ccccc5n4)c4c(C)cccc4C)cc(C(C)C)c4ccc1c2c43 [Compound 19] |  |  | >1 |  |  |  |  |  | 
Cc1cccc(C)c1N(c1nc(-c2ccccc2)nc(-c2ccccc2)n1)c1cc(C(C)C)c2ccc3c(N(c4nc(-c5ccccc5)nc(-c5ccccc5)n4)c4c(C)cccc4C)cc(C(C)C)c4ccc1c2c43 [Compound 18] |  |  | >1 |  |  |  |  |  | 
CC(C)c1cccc(C(C)C)c1N(c1cc(C(C)(C)C)cc(C(C)(C)C)c1)c1cc(N(c2cc(C(C)(C)C)cc(C(C)(C)C)c2)c2c(C(C)C)cccc2C(C)C)c2ccc3c(N(c4cc(C(C)(C)C)cc(C(C)(C)C)c4)c4c(C(C)C)cccc4C(C)C)cc(N(c4cc(C(C)(C)C)cc(C(C)(C)C)c4)c4c(C(C)C)cccc4C(C)C)c4ccc1c2c43 [Compound 9] |  |  | >20 |  |  |  |  |  | 
CCCCCCCCc1ccc(-c2cc(N(c3ccc(C(C)(C)C)cc3)c3ccc(C(C)(C)C)cc3)ccc2N(c2cc(F)c(F)c(F)c2)c2cc(N(c3cc(F)c(F)c(F)c3)c3ccc(N(c4ccc(C(C)(C)C)cc4)c4ccc(C(C)(C)C)cc4)cc3-c3ccc(CCCCCCCC)cc3)c3ccc4c(N(c5cc(F)c(F)c(F)c5)c5ccc(N(c6ccc(C(C)(C)C)cc6)c6ccc(C(C)(C)C)cc6)cc5-c5ccc(CCCCCCCC)cc5)cc(N(c5cc(F)c(F)c(F)c5)c5ccc(N(c6ccc(C(C)(C)C)cc6)c6ccc(C(C)(C)C)cc6)cc5-c5ccc(CCCCCCCC)cc5)c5ccc2c3c54)cc1 [Compound 25] | very small red shift |  | >10 | 51000 |  |  |  |  | 
